Data as given in patent publication US20120283269A1, “Method and Compositions for Suppression of Aging” (HEALTH RESEARCH INC., priority 2009, published 2012).
“Also recorded” adds a separate entry of the source.

What was measured:
mTOR pathway = experiment: Immunoblot for mTOR pathway (p-S6, p-4E-BP1, cyclin D1) in HT-p21 cells; assay type: cell-based, human
Protocol: FIG. 3. […] Immunoblot. […] Immunoblot. […] Immunoblot was performed as described in Methods. c. […] After 3 days, cells were washed and incubated in fresh medium w/o drugs for an additional 7 days. […] On days 2, 3, 4, and 5 cells were lysed and protein content per well was measured.
Cell lines and reagents. […] WI-38-Tert, WI-38 are fibroblasts immortalized by telomerase. […] Cells were grown in high glucose DMEM with 10% FC2 serum. WI-38-tert cells were grown in low glucose DMEM with 10% FCS. Rapamycin was obtained from LC Laboratories (Woburn, Mass.). IPTG (final concentration of 50 μg/ml) and FC2 were obtained from Sigma-Aldrich (St. Louis, Mo.).

p53 = experiment: Immunoblot for p53 and p21 in HT-p21-9 and HT-p21-GSE56 cells; assay type: cell-based, human
Protocol: Control cells were left untreated (no IPTG). After 1 day, cells were lysed and immunoblot was performed. b. […] As a negative control, parental cells were treated with nutlin-3b (open squares).c-d. […] Control cells were left untreated (no IPTG). c. Morphology. After 3 days, cells were stained for beta-Gal. Scale bars—50 μm.d. Colony formation. After 3 days, cells were washed and incubated in fresh medium w/o drugs for an additional 9 days. Plates were stained with crystal violet and photographed. e. Proliferative potential (PP). After 3 days, HT-p21-GSE56 cells were washed and incubated in fresh medium w/o drugs. Cells were counted and results are shown as percent of IPTG alone.
(§1) Cell lines and reagents. HT-p21-9 and HT-p21-a cells are derivatives of HT1080 human fibrosarcoma cells, where p21 expression can be turned on or off using isopropyl-thio-galactosidase (IPTG) (7, 16, 28, 29, 36). […] HT-p16 cells are derivatives of HT1080 cells in which p16 expression can be turned on or off using IPTG (16, 36). WI-38-Tert, WI-38 are fibroblasts immortalized by telomerase. HT-p21-GSE56 cells: p53 inhibiting peptide GSE56 (18) was introduced into HT1080 p21-9 cells via a retroviral vector LXSE (37). Cells were grown in high glucose DMEM with 10% FC2 serum. WI-38-tert cells were grown in low glucose DMEM with 10% FCS. Rapamycin was obtained from LC Laboratories (Woburn, Mass.). IPTG (final concentration of 50 μg/ml) and FC2 were obtained from Sigma-Aldrich (St. Louis, Mo.).
Immunoblot analysis. Proteins were separated on 4-15% gradient Tris-HCl gels (Bio-Rad). The following antibodies were used: mouse anti-actin from Santa Cruz Biotechnology, rabbit anti-phospho-S6 (Ser240/244) and (Ser235/236), mouse anti-S6, mouse anti-phospho-p70 S6 kinase (Thr389), mouse anti-p21 and anti-p53, rabbit anti-phospho-4E-BP1 (Thr37/46) from Cell Signaling; mouse anti-4E-BP1 from Invitrogen, mouse anti-p53 (Ab-6) from Calbiochem.

HT-p21-9 cells [1] = settings: HT-p21-9 cells; Huang et al. 2009; cited from earlier work
HT-p21-9 cells [2] = experiment: Colony formation / proliferative potential after drug removal, HT-p21-9 cells; assay type: cell-based, human
Protocol: FIG. 1. Nutlin-3a converted senescence into quiescence. a. […] Cells were stained for beta-Gal and photographed (original magnification ×400). Bar scale—50 μm. b. […] Then cells were cultured in fresh medium until colonies become visible. Dishes were stained with crystal violet and photographed on day 4 (control) or on day 9 (IPTG- and nutlin-3a-treated).c. […] Before wash. Live HT-p21-9 cells (expressing GFP for better visualization of live cells) were photographed (original magnification ×100) under blue light. 3 d wash. Three days after drug removal. 9 d wash. Nine days after drug removal, cells were stained with crystal violet and photographed. d. Nutlin-3a dose response. […] After 3 days, the plates were washed and cells were incubated for an additional 9 days in fresh medium, stained with crystal violet and photographed. e. Colonies per dish. […] After 3 days, the plates were washed and cells were incubated for an additional 9 days in fresh medium. Colonies were counted and results are shown as percent of control (IPTG alone). f. Cells per dish. As in panel e. Cells were trypsinized and counted. Results are shown as percent of control (IPTG alone).
FIG. 3. […] Immunoblot. […] Immunoblot was performed as described in the methods for Example 1 below. b. Immunoblot. […] Immunoblot was performed as described in Methods. c. […] After 3 days, cells were washed and incubated in fresh medium w/o drugs for an additional 7 days. Cells were counted and are shown as percent of IPTG alone. d. […] Cells were treated with either IPTG alone (black bars) or IPTG plus rapamycin (white bars) or plus nutlin-3a (grey bars). On days 2, 3, 4, and 5 cells were lysed and protein content per well was measured. […] Cells were labeled with [^35S]methionine/cysteine as described in Methods for Example 1.
FIG. 6. […] Nine days after drug removal. a. Cell number per dish. Cells per dish were counted. b. Cell number per a colony. Number of cells per colony was calculated. A number of cells per colony was 200-250 (approximately equals to 8 divisions) by day 9.
as §1
Colony formation assay. Plates were fixed and stained with 1.0% methylene blue or with crystal violet (13).

[3] = IPTG plus 10 μM nutlin-3a, 24 hr

For `COc1ccc(C2=N[C@@H](c3ccc(Cl)cc3)[C@@H](c3ccc(Cl)cc3)N2C(=O)N2CCNC(=O)C2)c(OC(C)C)c1` [nutlin-3a], the S6 phosphorylation (mTOR pathway; [3]) was “inhibited S6 phosphorylation”, the “phosphorylation of 4E-BP1” value (mTOR pathway; [3]) was “partially inhibited” and the “cyclin D1 levels” value (mTOR pathway; IPTG plus nutlin-3a) was “normalized elevated levels of cyclin D1”. The mTOR pathway (mTOR pathway; presence or absence of IPTG, 18 hr) was “inhibited the mTOR pathway both in the presence and absence of IPTG”, the “induction of p21 by IPTG in HT-p21-GSE56 cells” value (p53; 1 day) was “did not affect this induction” and the “p53 levels in HT-p21-GSE56 cells” value (p53; 1 day) was “did not affect p53 levels in HT-p21-GSE56 cells”. The “p53 levels in HT-p21 cells” value (p53; 1 day) was “induced p53 in HT-p21 cells”, the “levels of p21 induced by IPTG” value (p53; HT-p21 cells, IPTG plus compound) was “neither abrogated nor diminished the levels of p21; also recorded: did not prevent induction of p21 by IPTG” and the “cell cycle arrest on induction of p53 by nutlin-3a” value (HT-p21-9 cells [1]) was “reversible cell cycle arrest (quiescence)”. The “proliferative potential and clonogenicity of IPTG-treated cells” value (HT-p21-9 cells [2]; IPTG plus nutlin-3a 3 days, washed, fresh medium) was “retained the proliferative potential and clonogenicity”, the “number of cells per colony” value (HT-p21-9 cells [2]; IPTG+nutlin-3a 3 days, day 9 after drug removal) was 200-250 and the “potency in suppression of senescence (preservation of proliferative potential)” value (HT-p21-9 cells [2]; IPTG-treated HT-p21-9 cells) was “equally potent”. The “reversibility of arrest (colony formation upon removal)” value (HT-p21-9 cells [2]; nutlin-3a alone 3 days, then washed) was “reversible arrest” and the “further suppression of senescence by nutlin-3a in the presence of rapamycin” value (HT-p21-9 cells [2]; rapamycin (500 nM) at doses that completely inhibit mTOR) was “could not further suppress senescence”.
